Measurements published in paper PMC5505240, “The structure of a complex of the lactonohydrolase zearalenone hydrolase with the hydrolysis product of zearalenone at 1.60 Å resolution” (Acta Crystallographica. Section F, Structural Biology …, 2017).

Experiments:
[1] = biological target: T1, ZHD (zearalenone hydrolase) (Clonostachys rosea, UniProt Q8NKB0, V26I/P69A/V87I/K148N/M168L/D170V/K198Q/L200V); assay: HPLC of remaining ZEN; assay type: biochemical; conditions: 100 mM Tris-HCl pH 9.5, 30 °C, 15 nM ZHD, 1-50 µM ZEN
T1 construct: gene zhd101; full length; natural clone from genomic DNA of a CGMCC strain; extra N-terminal MD; E. coli BL21(DE3); dimer

[2] = biological target: the molecule itself; assay: SEC; HiLoad 16/60 Superdex 200 prep-grade column, last step of the purification; oligomeric state from the elution position

Molecule	Km [1]	stoichiometry N [2]
C[C@H]1CCCC(=O)CCC/C=C/c2cc(O)cc(O)c2C(=O)O1 [ZEN, zearalenone]	3.5 µM	–
Zearalenone hydrolase (ZHD), C-terminally His6-tagged (enzyme, Clonostachys rosea, zearalenone hydrolase (ZHD) cloned from genomic DNA of a Clonostachys rosea strain (CGMCC); natural strain variant with eight amino-acid variations compared with GenBank ALI16790.1; 14-amino-acid linker between ZHD and the C-terminal His6 tag; The His6 is written under tags, the linker as a part; The substitutions count against GenBank ALI16790.1, not necessarily against the UniProt entry; also …) MDMRTRSTISTPNGITWYYEQEGTGPDIVLVPDGLGECQMFDSSVSQIAAQGFRVTTFDMPGMSRSAKAPAETYTEVTAQKLASYVISILDALDIKHATVWGCSSGASTVVALLLGYPDRIRNAMCHELPTKLLDHLSNTAVLEDEEISNILANVMLNDVSGGSEAWQALGVEVHARLHKNYPVWARGYPRTIPPSAPVQDVEALRGKPLDWTVGAATPTESFFDNIVTATKAGVNIGLLPGMHFPYVSHPDVFAKYVVETTQKHLWNSSSVDKLAAALE	–	2
